The values that follow come from patent US20090047243A1, “COMBINATIONS FOR THE TREATMENT OF B-CELL PROLIFERATIVE DISORDERS” (priority 2007, published 2009).

The test system of assay [1] is RPMI-8226, H929, MM.1S and MM.1R MM cell lines. The experiment in a line: Anti-proliferation assay, statements across MM cell lines. It is filed as cell-based, human. Particulars: RPMI-8226, H929, MM.1S and MM.1R MM cell lines. As to the method: The MM.1S, MM.1R, H929, MOLP-8, EJM, INA-6, ANBL6, KSM-12-PE, OPM2, and RPMI-8226 multiple myeloma cell lines, as well as the Burkitt's lymphoma cell line GA-10 and the non-Hodgkin's lymphoma cell lines Farage, SU-DHL6, and Karpas 422 were cultured at 37° C. and 5% CO2 in RPMI-1640 media supplemented with 10% FBS. ANBL6 and INA-6 culture media was also supplemented with 10 ng/ml IL-6. The OCI-ly10 cell line was cultured using RPMI-1640 media supplemented with 20% human serum. MM.1S, MM.1R, OCI-ly10, Karpas 422, and SU-DHL6 cells were provided by the Dana Farber Cancer Institute. H929, RPMI-8226, GA-10, and Farage cells were from ATCC (Cat #'s CCL-155, CRL-9068, CRL-2392 and CRL-2630 respectively). MOLP-8, EJM, KSM-12-PE, and OPM2 were from DSMZ. The ANBL6 and INA-6 cell lines were provided by the M. D. Anderson Cancer Research Center.
Compounds were prepared in DMSO at 1000× the highest desired concentration. Master plates were generated consisting of serially diluted compounds in 2- or 3-fold dilutions in 384-well format. For single agent dose response curves, the master plates consisted of 9 individual compounds at 12 concentrations in 2- or 3-fold dilutions. For combination matrices, master plates consisted of individual compounds at 6 or 9 concentrations at 2- or 3-fold dilutions.
Cells were added to 384-well plates 24 hours prior to compound addition such that each well contained 2000 cells in 35 μL of media. Master plates were diluted 100× (1 μL into 100 μL) into 384-well dilution plates containing only cell culture media. 4.5 μL from each dilution plate was added to each assay plate for a final dilution of 1000×. To obtain combination data, two master plates were diluted into the assay plates. Following compound addition, assay plates were kept at 37° C. and 5% CO2 for 72 hours. Thirty microliters of ATPLite (Perkin Elmer) at room temperature was then added to each well. Final amount of ATP was quantified within 30 minutes using ATPLite luminescent read-out on an Envision 2103 Multilabel Reader (Perkin Elmer). Measurements were taken at the top of the well using a luminescence aperture and a read time of 0.1 seconds per well.
The Loewe additivity model was used to quantify combination effects. Combinations were ranked initially by Additivity Excess Volume, which is defined as ADD Volume=ΣCX, CY (Idata−ILoewe). where ILoewe(CX, CY) is the inhibition that satisfies (CX/ECX)+(CY/ECY)=1, and ECX,Y are the effective concentrations at ILoewe for the single agent curves. A “Synergy Score” was also used, where the Synergy Score S=log fX log fY ΣIdata(Idata−ILoewe), summed over all non-single-agent concentration pairs, and where log fX,Y is the natural logarithm of the dilution factors used for each single agent. This effectively calculates a volume between the measured and Loewe additive response surfaces, weighted towards high inhibition and corrected for varying dilution factors. An uncertainty σS was calculated for each synergy score, based on the measured errors for the Idata values and standard error propagation.

The test system of a further assay is patient CLL cells. Nature of the assay: Apoptosis assay (Hoechst 33342, flow cytometry, 48 h). It is filed as cell-based, human. Also noted: unit not given here. From the text: Blood samples were obtained in heparinized tubes with IRB-approved consent from flow cytometry-confirmed B-CLL patients that were either untreated or for whom at least 1 month had elapsed since chemotherapy. Patients with active infections or other serious medical conditions were not included in this study. Patients with white blood cell counts of less than 15,000/μl by automated analysis were excluded from this study. Whole blood was layered on Ficoll-Hystopaque (Sigma), and peripheral blood mononuclear cells (PBMC) isolated after centrification. […] One million cells were stained with anti-CD5-PE and anti-CD19-PE-Cy5 (Becton Dickenson, Franklin Lakes N.J.). The percentage of B-CLL cells was defined as the percentage of cells doubly expressing CD5 and CDl9, as determined by flow cytometry. […] Compound master plates were diluted 1:50 into complete media to create working compound dilutions. Compound crosses were then created by diluting two working dilution plates 1:10 into each plate of cells. […] Hoechst 33342 (Molecular Probes, Eugene Oreg.) at a final concentration of 0.25 μg/1 mL was added to each well, and the cells incubated at 37° C. for an additional ten minutes before being placed on ice until analysis. Plates were then analyzed on a LSR-II flow cytometer (Becton Dickenson, Franklin Lakes, N.J.) equipped with the High Throughput Sampling (HTS) option in high throughput mode. […] The apoptotic fraction was calculated using FlowJo software (Tree Star Inc., Ashland, Oreg.) after excluding debris by a FSC/SSC gate and subsequently gating for cells that accumulate the Hoechst dye.

Take `OC[C@H]1O[C@@H](n2cnc3c(NC4CCCC4)nc(Cl)nc32)[C@H](O)[C@@H]1O` [2-chloro-N-6-cyclopentyladenosine, 2-chloro-N^6-cyclopentyladenosine]: the “activity and synergy of adenosine receptor agonists” value (from here on “activity and synergy”) in assay [1] was “active and synergistic”.

For the compound `OC[C@H]1O[C@H](n2cnc3c(NC4CC5CCC4C5)ncnc32)[C@H](O)[C@@H]1O` (stereo partly drawn) [(S)-ENBA, S-N^6-(2-endo-norbornyl)adenosine], in assay [1], the “activity and synergy” value is “active and synergistic”.

`CCNC(=O)[C@H]1O[C@@H](n2cnc3c(N)nc(NCCc4ccc(CCC(=O)O)cc4)nc32)[C@H](O)[C@@H]1O` [CGS-21680, 2-(4-(2-carboxyethyl)phenethylamino)-5′-N-ethylcarboxamidoadenosine]: the Induction of apoptosis was 12 in the assay on patient CLL cells (CGS-21680 0.05 μM, Roflumilast 0 μM (Table 50)); 16 in the assay with patient CLL cells (CGS-21680 0.05 μM, Trequinsin 0 μM (Table 51)); 15 in the assay with patient CLL cells (CGS-21680 0.15 μM, Roflumilast 0 μM (Table 50)); 16 with patient CLL cells (CGS-21680 0.15 μM, Trequinsin 0 μM (Table 51)); 25 in the assay with patient CLL cells (CGS-21680 […], Roflumilast 0 μM (Table 50)); 27 in the assay with patient CLL cells (CGS-21680 […], Trequinsin 0 μM (Table 51)).

For the compound `CNC(=O)[C@H]1O[C@@H](n2cnc3c(NCc4cccc(I)c4)ncnc32)[C@H](O)[C@@H]1O` [IB-MECA, N^6-(3-iodobenzyl)-5′-N-methylcarboxamidoadenosine], the “activity and synergy” value in assay [1] is “active and synergistic”.

On to `CNC(=O)[C@H]1O[C@@H](n2cnc3c(NCc4cccc(I)c4)nc(Cl)nc32)[C@H](O)[C@@H]1O` [chloro-IB-MECA, 2-chloro-N^6-(3-iodobenzyl)-5′-N-methylcarboxamidoadenosine], for which the “activity and synergy” value in assay [1] is “active and synergistic”.
